# Test results as given in patent US8664289B2, “Dye and coloring photosensitive composition” (Adeka Corporation, priority 2010, dated 2014).
# Tests used:
# Format in all cases: physicochemical
# Solubility in PGMEA = details: concentration when PGMEA was added dropwise to 0.1 g of the compound under stirring and was dissolved completely
# Method: (§1) That the obtained solid was an intended product was confirmed by ^1H-NMR and IR. Furthermore, the solubility of the obtained compound was measured. The solubility was a concentration when PGMEA was added dropwise to 0.1 g of the compound under stirring and was dissolved completely. The results thereof are shown in [Table 1] to [Table 4].
# as §1, with “added” for “added dropwise”, “while” for “under”, “4]” for “4].”
# [1] = Heat resistance of exposed coating film of coloring alkali-developable photosensitive composition; details: for Relative intensity After exposure: coating film after exposure (150 mJ/cm^2), before heating; for λmax: coating film of composition containing the compound, on glass; for Relative intensity 230° C., 30 min: exposed coating film after 230° C.
# Text: 30.33 g of ACA Z250 (manufactured by Daicel Cytec Company Ltd.) and 11.04 g of ARONIX M-450 (manufactured by Toagosei Co., Ltd.) as the component (B), 1.93 g of IRGACURE 907 (manufactured by BASF) as the component (C), 36.60 g of PGMEA and 20.08 g of cyclohexanone as the component (E), as well as 0.01 g of FZ2122 (manufactured by Dow Corning Toray Co., Ltd.) as other component were mixed and stirred until insoluble components were diminished to give Alkali-developable photosensitive composition No. 1.
# 1.90 g of dimethylacetamide was added to 0.10 g of Compound No. 1 obtained above as the component (A) and dissolved under stirring.
# 5.0 g of Alkali-developable photosensitive composition No. 1 obtained in Step 1 and 1.0 g of Dye liquid No. 1 obtained in Step 2 were mixed and stirred to homogeneous to give Coloring alkali-developable photosensitive composition No. 1 of the present invention.
# Coloring alkali-developable photosensitive compositions Nos. 2 to 20 were obtained in a similar manner to that in Example 2-1, except that Compound No. 1 as the component (A) in Step 2 of Example 2-1 was changed to Compound No. 2, 3, 5, 6, 16, 53, 56, 57, 59, 60, 65, 66, 94 or 96 to 101 obtained above.
# Comparative coloring alkali-developable photosensitive compositions Nos. 1 and 2 were obtained in a similar manner to that in Example 2-1, except that Compound No. 1 as the component (A) in Step 2 of Example 2-1 was changed to Comparative Compound No. 1 or 2.
# The coloring alkali-developable photosensitive compositions obtained in Example 2 were each applied to a glass basal plate under a condition of 410 rpm×7 sec and dried (90° C., 90 sec) on a hot plate. The obtained coating film was exposed (150 mJ/cm^2) by using an ultrahigh pressure mercury lamp. The heat resistance of the exposed coating film was investigated under conditions of 180° C.×60 min and 230° C.×30 min. The results are shown in [Table 7].
# Using the coloring alkali-developable photosensitive compositions obtained in Examples 2-2 to 2-20 and Comparative Examples 2-1 and 2-2, heat resistance was investigated in a similar manner to that in Evaluation Example 3. The results are shown in [Table 7].
# [2] = Evaluation of absorption wavelength property in CHCl3 solution; set-up: ε: unit not given here; details: for ε: molar absorption coefficient
# Text: The absorption wavelength properties of Compounds Nos. 1 to 7, 16, 26, 43, 52 to 62, 65, 66, 69, 70 and 94 to 102 and Comparative Compounds Nos. 1 and 2 obtained above were each evaluated in a CHCl3 solution. The results are shown in [Table 5].
# [3] = Evaluation of heat resistance by TG-DTA; details: temperature at 10% weight loss
# Method: Compounds Nos. 1 to 7, 16, 26, 43, 52 to 62, 65, 66, 69, 70 and 94 to 102 and Comparative Compounds Nos. 1 and 2 obtained above were analyzed by TG-DTA, and the melting points and temperatures at 10% weight loss were measured. The results are shown in [Table 6].
Compound,Solubility (PGMEA) (Solubility in PGMEA),Relative intensity After exposure [1],λmax [1],"Relative intensity 230° C., 30 min [1]",λmax [2],ε [2],10% weight loss [3]
C=C(C)C(=O)OCCN(C)c1ccc(/C=C(\C#N)C(=O)OCCCCCCOC(=O)/C(C#N)=C/c2ccc(N(C)CCOC(=O)C(=C)C)cc2)cc1 [Compound No. 66],1.0 or less wt %,100,419 nm,99.2,419 nm,94100,354 °C
CN(CCO)c1ccc(/C=C(\C#N)C(=O)OCCCCCCOC(=O)/C(C#N)=C/c2ccc(N(C)CCO)cc2)cc1 [Compound No. 59],1.0 or less wt %,100,431 nm,99.7,420 nm,89900,295 °C
CCN(CC)c1ccc(/C=C(\C#N)C(=O)OCC(C)OC(=O)/C(C#N)=C/c2ccc(N(CC)CC)cc2)cc1 (stereo not drawn) [Compound No. 2],4.0 wt %,100,430 nm,99.3,434 nm,100000,312 °C
CCN(CC)c1ccc(/C=C(\C#N)C(=O)OCC(CC)(COC(=O)/C(C#N)=C/c2ccc(N(CC)CC)cc2)COC(=O)/C(C#N)=C/c2ccc(N(CC)CC)cc2)cc1 [Compound No. 57],1.0 or less wt %,100,430 nm,99.9,437 nm,152000,339 °C
N#C/C(=C\c1ccc(N2CCOCC2)cc1)C(=O)OCCCCCCCOC(=O)/C(C#N)=C/c1ccc(N2CCOCC2)cc1 [Compound No. 60],1.0 or less wt %,100,408 nm,73.8,405 nm,71700,350 °C
CCN(CC)c1ccc(/C=C(\C#N)C(=O)OCC(C)(COC(=O)/C(C#N)=C/c2ccc(N(CC)CC)cc2)COC(=O)/C(C#N)=C/c2ccc(N(c3ccccc3)c3ccccc3)cc2)cc1 (stereo not drawn) [Compound No. 96],10.0 wt %,100,433 nm,99.5,437 nm,138000,347 °C

# Continued, values first:
Solubility (PGMEA) (Solubility in PGMEA),Relative intensity After exposure [1],λmax [1],"Relative intensity 230° C., 30 min [1]",λmax [2],ε [2],10% weight loss [3],Compound
1.0 or less wt %,100,431 nm,99.5,428 nm,119000,288 °C,CN(CCO)c1ccc(/C=C(\C#N)C(=O)OCC(C)(COC(=O)/C(C#N)=C/c2ccc(N(C)CCO)cc2)COC(=O)/C(C#N)=C/c2ccc(N(C)CCO)cc2)cc1 [Compound No. 98]
10.0 wt %,100,426 nm,99.4,425 nm,153000,336 °C,CC(COC(=O)/C(C#N)=C/c1ccc(N(Cc2ccccc2)Cc2ccccc2)cc1)(COC(=O)/C(C#N)=C/c1ccc(N(Cc2ccccc2)Cc2ccccc2)cc1)COC(=O)/C(C#N)=C/c1ccc(N(Cc2ccccc2)Cc2ccccc2)cc1 [Compound No. 101]
6.0 wt %,100,436 nm,99.7,434 nm,147000,330 °C,CCN(CC)c1ccc(/C=C(\C#N)C(=O)OCC(C)(COC(=O)/C(C#N)=C/c2ccc(N(C)CCO)cc2)COC(=O)/C(C#N)=C/c2ccc(N(CC)CC)cc2)cc1 (stereo not drawn) [Compound No. 100]
